Laboratory results taken from patent US20260218126A1, “METHOD FOR PRODUCING RETINAL TISSUE” (RACTHERA CO., LTD., priority 2023, published 2026).

Key:
Type in all cases: cell-based
KhES-1_Rx::Venus cells = experiment: Retinal differentiation induction with or without LDN-193189 addition (GFP and Chx10 expression)
Protocol: • 1. KhES-1_Rx::Venus cells (KhES-1 cells obtained by knocking a GFP variant called Venus in the locus of a retinal marker Rx) that reached optimal confluence were collected by removing the medium and washed twice with 1 mL of PBS (−). • 2. The cells were incubated at 37° C. and 5% CO2 with 0.5×TrypLE™ Select added at 500 μL/well. • 3. After the 0.5×TrypLE™ Select was removed, PBS (−) was added to the well at 2 mL/well and the cells were peeled off by spraying PBS (−). • 4. The cells were collected into a 15 mL Falcon tube and the cell number was counted. • 5. The required number of cells (5×10^5 cells per dish) was transferred to another tube and centrifuged at 1000 rpm at 20° C. for 5 minutes. • 6. After the supernatant was removed, the cells were suspended with AK02N+Y to provide a cell suspension of 5×10^5 cells/200 μL AK02N+Y. • 7. The iMatrix coating solution within the PDMS sheet was removed with an aspirator and the cell suspension (5×10^5 cells/200 μL AK02N+Y) was added to the circle and incubated at 37° C. for 30 minutes. • 8. The PDMS sheet was removed from the dish with sterilized tweezers. • 9. The cells was cultured at 37° C. and 5% CO2 with 300 μL of AK02 N+Y added to the dish. <Day 1: Medium Replacement with AK02+PS> • 1. The whole medium was replaced with 1 mL of gfCDM (10% KSR) containing LDN-193189 (04-0074-02, ReproCELL Inc.) (hereinafter referred to as LDN). (final concentration of 100 nM LDN). […] Expressions of Chx10, Recoverin, FOXG1, Crx, Tuj1, Zo-1, and Pax6 were evaluated by immunostaining with primary antibodies specific for the respective markers and secondary antibodies suitable for the primary antibodies. The effect of LDN-193189, a BMP signaling inhibitor, on the differentiation induction was evaluated. […] Also, expressions of GFP and Chx10 at Day 18 were evaluated in the patterned and non-patterned cells with or without the LDN-193189 addition. The Chx10 expression was assessed by quantitative PCR (using HPRT1 as an endogenous control) and immunostaining.

[1] = tested on: human iPS cells (LPF11 line); experiment: Duration of action of Y-27632 at cell seeding in patterning culture (LPF11 line); settings: for percentage of Chx10-positive areas on the sheet surface: ImageJ
Protocol: The percentage of area covered by a retinal tissue on the region A may be measured by any methods, and for example, can be measured by staining the retinal tissue. For example, it is measured by staining expression of the retinal cell marker described above (such as Chx10) (e.g., by immunostaining with a fluorescently labeled anti-Chx10 antibody). Then, by using imaging software such as ImageJ software (NIH), the ratio of the area of the retinal cell marker-positive region to the area of the region A can be calculated.
(§1) For patterning, a droplet (1 cm in diameter) of a solution containing 0.785 μl of Laminin511-E8 (Nippi. Inc.) in 100 μl of PBS (Laminin51l-E8 concentration of 3.925 ng/μl) was made in the center of the wells of a 12-well plate (Iwaki, for cell culture, culture area 3.8 cm^2) and then incubated at 37° C. or room temperature for 1 to 3 hours to prepare 12-well-plates for patterning culture (Laminin511-E8: 0.5 μg/cm^2).
(§2) First, a 12-well plate for patterning culture prepared by the method described in Example 1 was provided, and subconfluent human iPS cells (LPF11 and DSP-SQ lines) were washed with PBS and dispersed into single cells using TrypLE Select (Life Technologies). The human iPS cells dispersed into single cells were then seeded into one well of the patterning culture plate at a density of 2.0×10^5 cells/cm^2 and cultured under feeder-free condition in Stemfit medium in the presence of Y-27632 (ROCK inhibitor, 10 μM). Then, after 2, 4, 8, 16, or 32 hours culture, the medium was replaced with 2 ml of StemFit medium without Y-27632.
(§3) The patterning culture was then performed as described in Example 1, and on Day 20 of seeding, cells were fixed with 4% paraformaldehyde and bright-field images were obtained with a fluorescence microscope (Keyence). […] The percentage of Chx10-positive areas on the sheet surface was calculated using ImageJ software (NIH) and was 91% for sheets with Y-27632 for 32 hours, compared to 97% or more for sheets with Y-27632 for 16 hours or less (16 hours: 97%, 8 hours: 99%, 4 hours: 98%, 2 hours: 99%).

[2] = tested on: human iPS cells (DSP-SQ line); experiment: Duration of action of Y-27632 at cell seeding in patterning culture (DSP-SQ line); settings: shortening the duration of action of Y-27632; Day 20; immunostaining
Protocol: as §1
First, a 12-well plate for patterning culture prepared by the method described in Example 1 was provided, and subconfluent human iPS cells (LPF11 and DSP-SQ lines) were washed with PBS and dispersed into single cells using TrypLE Select (Life Technologies). […]
as §3

[3] = tested on: human iPS cells (LPF11 line); experiment: BMP4 concentration for retinal differentiation by patterning culture (Rx immunostaining, real-time PCR); settings: Day 20
Protocol: as §2, with “line)” for “and DSP-SQ lines)”, “Two” for “Then, after 2, 4, 8, 16, or 32”, “later,” for “culture,”, “Y-27632 and patterning culture was performed as described in Example 1.” for “Y-27632.”
On Day 7 of patterning culture, the medium was replaced with serum-free medium (gfCDM+KSR) containing exogenous human recombinant BMP4 (R&D) at a final concentration of 0, 1.5, 3, 6, or 12 nM. Thereafter, half of the medium was replaced with serum-free medium (gfCDM+KSR) without human recombinant BMP4 every 2 to 3 days. […]
Total RNA was then extracted from the retinal tissue using a spin column (QIAGEN, RNeasy Micro kit) by the method described in the kit. The concentration of total RNA was measured by a measuring device (Nanodrop, Thermo scientific) and then reverse transcribed into cDNA using reverse transcriptase and primers (Reverse Transcription Master Mix Kit, Fluidigm). […] The Pre-Run reaction solutions were then injected into a flow-through multi-well (96. 96 Dynamic Array IFC, Fluidigm) using an IFC Controller HX (Fluidigm), and the expression levels of marker genes for neural retina and for by-products other than neural retina were determined by real-time PCR using a multi-sample real-time PCR system (Biomark HD, Fluidigm).
Specifically, the ΔCt value was calculated from the difference between the Ct value of the target gene and the Ct value of GAPDH, the gene used as the internal standard, and the ratio of expression level of each gene was calculated from the difference in ΔCt between samples (ΔΔCt).

## c1ccc2c(-c3cnn4cc(-c5ccc(N6CCNCC6)cc5)cnc34)ccnc2c1 [LDN-193189, 4-[6-(4-Piperazin-1-ylphenyl)pyrazolo[1,5-a]pyrimidin-3-yl]quinoline]
KhES-1_Rx::Venus cells; Day 11, patterning culture, LDN-193189 100 nM from Day 3 to Day 8, compared to cells without LDN-193189
  GFP expression: uniform GFP expression
KhES-1_Rx::Venus cells; Day 18, without patterning culture, quantitative PCR (HPRT1 control) and immunostaining, with vs without LDN-193189 addition
  Chx10 expression: increased
KhES-1_Rx::Venus cells; Day 18, without patterning culture, with vs without LDN-193189 addition
  GFP expression: increased

## C[C@@H](N)[C@H]1CC[C@H](C(=O)Nc2ccncc2)CC1 [Y-27632]
[1]; Y-27632 10 μM for 2, 4, 8, 16 or 32 hours, LPF11 and DSP-SQ lines
  survival of human iPS cells after removing Y-27632: survived
[1]; Y-27632 10 μM for 2 hours, Day 20
  percentage of Chx10-positive areas on the sheet surface: 99%
[1]; Y-27632 10 μM for 4 hours, Day 20
  percentage of Chx10-positive areas on the sheet surface: 98%
[1]; Y-27632 10 μM for 8 hours, Day 20
  percentage of Chx10-positive areas on the sheet surface: 99%
[1]; Y-27632 10 μM for 16 hours or less, Day 20
  percentage of Chx10-positive areas on the sheet surface: ≥ 97%
[1]; Y-27632 10 μM for 16 hours, Day 20
  percentage of Chx10-positive areas on the sheet surface: 97%
[1]; Y-27632 10 μM for 32 hours, Day 20
  percentage of Chx10-positive areas on the sheet surface: 91%
[1]; longer duration of action of Y-27632 (2 to 32 hours), Day 20, bright-field
  holes on the cell sheet surface: the more holes were created
[2]
  Chx10-negative areas on the sheet surface: fewer Chx10-negative areas

B1: BMP4: human recombinant BMP4 (R&D), BMP signaling activator (protein, UniProt P12644 293-408, looked up)
Bone morphogenetic protein 4: SPKHHSQRARKKNKNCRRHSLYVDFSDVGWNDWIVAPPGYQAFYCHGDCPFPLADHLNSTNHAIVQTLVNSVNSSIPKACCVPTELSAISMLYLDEYDKVVLKNYQEMVVEGCGCR
[3]; BMP4 3 to 12 nM compared to 1.5 nM
  expression of retinal progenitor cell marker Rx (immunostaining): more strongly expressed
[3]; BMP4 3 to 12 nM compared to 1.5 nM, GAPDH internal standard
  expression of retinal progenitor cell marker genes Chx10 and Rx (relative mRNA, real-time PCR): higher expression
[3]; BMP4 3 to 12 nM
  expression of Emx2, marker gene for unintended cells (relative mRNA, real-time PCR): low and suppressed expression
